# Test results reported in patent US8314215B2, “Mild chemically cleavable linker system” (The Board of Trustees of the Leland Stanford Junior …, priority 2006, dated 2012).
# Assays:
# Assay in all cases: LC/MS/MS identification of proteins from mouse liver extracts labeled with MTS-I-49
# Format in all cases: biochemical
# [1] = test system: acetyl-Coenzyme A dehydrogenase
# [2] = target: T1, peroxisomal acyl-CoA oxidase (Mus musculus, UniProt Q9R0H0)
# T1 construct: from tissue; host or cells: mouse liver extract
# T1 sequence (Q9R0H0 1-661): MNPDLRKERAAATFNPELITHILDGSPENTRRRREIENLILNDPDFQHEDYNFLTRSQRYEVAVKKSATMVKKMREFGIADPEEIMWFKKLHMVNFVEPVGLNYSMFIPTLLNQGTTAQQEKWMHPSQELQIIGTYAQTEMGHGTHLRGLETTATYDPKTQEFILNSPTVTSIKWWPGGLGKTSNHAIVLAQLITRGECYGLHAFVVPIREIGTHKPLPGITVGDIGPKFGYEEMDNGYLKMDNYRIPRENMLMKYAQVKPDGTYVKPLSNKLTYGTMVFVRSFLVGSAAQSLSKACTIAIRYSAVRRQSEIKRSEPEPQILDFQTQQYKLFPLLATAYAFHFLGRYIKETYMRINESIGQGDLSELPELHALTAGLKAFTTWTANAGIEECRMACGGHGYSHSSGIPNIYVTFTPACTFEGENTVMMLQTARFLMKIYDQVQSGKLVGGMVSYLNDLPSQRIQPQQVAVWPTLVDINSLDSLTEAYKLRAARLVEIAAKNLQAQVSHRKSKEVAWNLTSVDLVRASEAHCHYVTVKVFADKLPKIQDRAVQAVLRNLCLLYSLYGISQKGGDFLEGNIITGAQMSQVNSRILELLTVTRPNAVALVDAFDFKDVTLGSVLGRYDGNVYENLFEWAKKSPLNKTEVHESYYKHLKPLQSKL
# carbonmonoxy hemoglobin = test system: carbonmonoxy hemoglobin
# [3] = chemically eluted, digested in solution
compound,measurement,setting,value
C[C@H](NC(=O)c1ccc(N=Nc2cc(CCNC(=O)CCCC[C@@H]3SC[C@@H]4NC(=O)N[C@@H]43)ccc2O)cc1)C(=O)N[C@@H](C)C(=O)NC(Cc1ccccc1)P(=O)(Oc1ccccc1)Oc1ccccc1 (stereo partly drawn) [MTS-I-49],"Chemical Cleavage, number of identified peptides",[1]; [3],0
same,"On Bead Digestion, amino acid sequence coverage",[1]; on bead digestion,34%
same,"On Bead Digestion, number of identified peptides",[1]; on bead digestion,3
same,"Chemical Cleavage, number of identified peptides",[2]; [3],0
same,"On Bead Digestion, amino acid sequence coverage",[2]; on bead digestion,4%
same,"On Bead Digestion, number of identified peptides",[2]; on bead digestion,2
same,"Chemical Cleavage, number of identified peptides",carbonmonoxy hemoglobin; [3],0
same,"On Bead Digestion, amino acid sequence coverage",carbonmonoxy hemoglobin; on bead digestion,68%
same,"On Bead Digestion, number of identified peptides",carbonmonoxy hemoglobin; on bead digestion,7
